One test can be described thus: cells. As to conditions: Homo sapiens, KYSE-150, 168 h.
Test [1] deals with T1, Lysine-specific demethylase 4C (Homo sapiens, UniProt Q9H3R0).
T1 sequence (Q9H3R0 whole entry): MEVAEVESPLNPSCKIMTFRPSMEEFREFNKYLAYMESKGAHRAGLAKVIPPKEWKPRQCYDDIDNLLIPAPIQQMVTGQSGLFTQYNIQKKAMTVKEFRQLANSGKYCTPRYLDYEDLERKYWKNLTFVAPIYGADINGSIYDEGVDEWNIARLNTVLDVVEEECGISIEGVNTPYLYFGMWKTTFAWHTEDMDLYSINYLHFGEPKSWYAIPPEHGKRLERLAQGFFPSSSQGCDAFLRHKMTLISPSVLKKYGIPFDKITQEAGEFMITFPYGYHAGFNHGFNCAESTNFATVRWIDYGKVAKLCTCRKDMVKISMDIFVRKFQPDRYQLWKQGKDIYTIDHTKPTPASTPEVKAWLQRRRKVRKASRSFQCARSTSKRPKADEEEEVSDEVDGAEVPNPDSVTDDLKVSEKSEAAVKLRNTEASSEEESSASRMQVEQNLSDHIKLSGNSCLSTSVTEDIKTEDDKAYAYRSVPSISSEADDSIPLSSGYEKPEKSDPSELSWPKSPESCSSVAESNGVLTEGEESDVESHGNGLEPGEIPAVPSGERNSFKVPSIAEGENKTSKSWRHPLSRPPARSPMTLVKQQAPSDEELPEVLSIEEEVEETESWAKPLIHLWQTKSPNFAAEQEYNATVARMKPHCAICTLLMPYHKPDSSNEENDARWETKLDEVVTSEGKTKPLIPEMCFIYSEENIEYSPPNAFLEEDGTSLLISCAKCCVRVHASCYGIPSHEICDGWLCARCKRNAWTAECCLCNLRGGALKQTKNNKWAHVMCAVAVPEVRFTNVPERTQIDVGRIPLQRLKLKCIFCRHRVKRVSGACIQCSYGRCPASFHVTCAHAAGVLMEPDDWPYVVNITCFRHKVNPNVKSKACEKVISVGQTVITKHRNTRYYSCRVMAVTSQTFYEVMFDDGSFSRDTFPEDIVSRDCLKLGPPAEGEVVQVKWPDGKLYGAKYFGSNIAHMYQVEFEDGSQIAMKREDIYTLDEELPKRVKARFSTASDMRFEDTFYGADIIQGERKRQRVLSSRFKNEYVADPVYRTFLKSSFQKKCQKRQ
Kind of test: biochemical.

Test [2] addresses T2, Lysine-specific demethylase 5B (Homo sapiens, UniProt Q9UGL1). Kind of test: biochemical.
The target of test [3] is T3, Lysine-specific demethylase 5A (Homo sapiens, UniProt P29375). Kind of test: biochemical.
The target in test [4] is T1, Lysine-specific demethylase 4C.
Test [5] has as its target T2, Lysine-specific demethylase 5B.
Test [6] has as its target Lysine-specific demethylase 6A (Homo sapiens, UniProt O15550).
For test [7], the target named is T4, Lysine-specific demethylase 4A (Homo sapiens, UniProt O75164).
T4 sequence (O75164 whole entry): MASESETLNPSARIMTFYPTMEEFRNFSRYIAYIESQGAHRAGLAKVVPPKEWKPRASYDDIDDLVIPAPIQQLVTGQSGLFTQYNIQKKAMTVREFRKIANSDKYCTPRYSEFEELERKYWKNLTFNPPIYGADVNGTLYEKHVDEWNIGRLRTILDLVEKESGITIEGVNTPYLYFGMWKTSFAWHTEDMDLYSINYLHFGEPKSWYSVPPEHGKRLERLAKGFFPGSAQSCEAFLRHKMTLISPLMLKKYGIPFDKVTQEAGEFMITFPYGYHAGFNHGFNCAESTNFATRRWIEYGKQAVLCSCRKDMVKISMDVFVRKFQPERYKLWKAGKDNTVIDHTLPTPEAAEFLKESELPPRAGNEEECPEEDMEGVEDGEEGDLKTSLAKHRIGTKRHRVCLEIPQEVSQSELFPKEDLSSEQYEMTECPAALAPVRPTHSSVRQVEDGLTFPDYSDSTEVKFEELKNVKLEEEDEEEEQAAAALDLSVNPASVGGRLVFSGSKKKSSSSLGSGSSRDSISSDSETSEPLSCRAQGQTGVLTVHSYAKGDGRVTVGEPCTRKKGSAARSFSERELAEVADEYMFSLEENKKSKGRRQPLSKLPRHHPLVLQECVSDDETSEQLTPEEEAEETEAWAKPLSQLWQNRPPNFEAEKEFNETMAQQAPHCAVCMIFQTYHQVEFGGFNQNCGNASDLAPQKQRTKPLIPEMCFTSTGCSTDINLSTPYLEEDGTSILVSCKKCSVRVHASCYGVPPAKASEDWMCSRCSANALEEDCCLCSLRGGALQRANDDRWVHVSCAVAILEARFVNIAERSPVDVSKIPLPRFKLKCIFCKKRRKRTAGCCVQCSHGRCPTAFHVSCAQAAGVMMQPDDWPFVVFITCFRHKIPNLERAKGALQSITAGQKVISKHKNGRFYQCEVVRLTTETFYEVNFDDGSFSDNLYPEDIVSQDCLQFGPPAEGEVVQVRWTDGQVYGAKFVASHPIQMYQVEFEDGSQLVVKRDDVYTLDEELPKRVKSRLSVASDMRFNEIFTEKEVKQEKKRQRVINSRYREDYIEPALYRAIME

For test [8], the target named is T5, Lysine-specific demethylase 2B (Homo sapiens, UniProt Q8NHM5).
T5 sequence (Q8NHM5 whole entry): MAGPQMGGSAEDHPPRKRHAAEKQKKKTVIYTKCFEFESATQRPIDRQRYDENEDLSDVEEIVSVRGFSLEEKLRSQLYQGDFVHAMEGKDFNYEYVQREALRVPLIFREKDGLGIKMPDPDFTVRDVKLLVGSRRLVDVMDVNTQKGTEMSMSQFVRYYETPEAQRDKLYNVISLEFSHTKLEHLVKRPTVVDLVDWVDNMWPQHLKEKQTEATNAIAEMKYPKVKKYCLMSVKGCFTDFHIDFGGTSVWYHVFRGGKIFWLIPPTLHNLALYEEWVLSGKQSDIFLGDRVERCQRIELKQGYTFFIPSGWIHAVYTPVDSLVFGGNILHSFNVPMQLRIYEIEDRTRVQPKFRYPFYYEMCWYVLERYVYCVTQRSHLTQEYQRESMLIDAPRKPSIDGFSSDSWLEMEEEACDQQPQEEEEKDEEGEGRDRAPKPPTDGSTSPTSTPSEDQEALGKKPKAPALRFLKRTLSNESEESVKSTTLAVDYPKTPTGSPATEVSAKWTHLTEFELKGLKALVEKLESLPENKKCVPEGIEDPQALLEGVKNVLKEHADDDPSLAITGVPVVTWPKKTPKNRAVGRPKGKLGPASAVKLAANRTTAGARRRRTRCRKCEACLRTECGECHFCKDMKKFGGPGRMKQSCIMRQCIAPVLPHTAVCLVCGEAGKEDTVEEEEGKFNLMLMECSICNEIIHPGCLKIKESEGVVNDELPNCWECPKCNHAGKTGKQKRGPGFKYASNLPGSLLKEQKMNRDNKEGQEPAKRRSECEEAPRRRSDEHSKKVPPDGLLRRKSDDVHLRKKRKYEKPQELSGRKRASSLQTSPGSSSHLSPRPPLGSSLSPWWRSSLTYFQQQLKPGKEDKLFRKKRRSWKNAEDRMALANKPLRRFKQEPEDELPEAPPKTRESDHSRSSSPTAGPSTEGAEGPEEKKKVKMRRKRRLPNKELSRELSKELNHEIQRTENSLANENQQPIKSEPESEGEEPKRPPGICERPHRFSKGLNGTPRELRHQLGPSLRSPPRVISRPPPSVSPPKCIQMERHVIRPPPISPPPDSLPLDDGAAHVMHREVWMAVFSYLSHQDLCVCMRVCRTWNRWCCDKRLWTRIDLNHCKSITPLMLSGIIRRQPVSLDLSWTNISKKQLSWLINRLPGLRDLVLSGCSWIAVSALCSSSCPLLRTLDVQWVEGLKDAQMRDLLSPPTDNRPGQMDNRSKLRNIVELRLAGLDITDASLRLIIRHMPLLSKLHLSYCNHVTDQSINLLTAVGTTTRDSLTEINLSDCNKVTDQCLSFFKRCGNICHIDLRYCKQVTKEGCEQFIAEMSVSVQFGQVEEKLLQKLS
Kind of test: biochemical.

The target of test [9] is T2, Lysine-specific demethylase 5B. This is another data set of the same source.
In test [10] the target is T3, Lysine-specific demethylase 5A.

A value given as a limit tells only on which side of the number the result lay.

T3 sequence (P29375 whole entry): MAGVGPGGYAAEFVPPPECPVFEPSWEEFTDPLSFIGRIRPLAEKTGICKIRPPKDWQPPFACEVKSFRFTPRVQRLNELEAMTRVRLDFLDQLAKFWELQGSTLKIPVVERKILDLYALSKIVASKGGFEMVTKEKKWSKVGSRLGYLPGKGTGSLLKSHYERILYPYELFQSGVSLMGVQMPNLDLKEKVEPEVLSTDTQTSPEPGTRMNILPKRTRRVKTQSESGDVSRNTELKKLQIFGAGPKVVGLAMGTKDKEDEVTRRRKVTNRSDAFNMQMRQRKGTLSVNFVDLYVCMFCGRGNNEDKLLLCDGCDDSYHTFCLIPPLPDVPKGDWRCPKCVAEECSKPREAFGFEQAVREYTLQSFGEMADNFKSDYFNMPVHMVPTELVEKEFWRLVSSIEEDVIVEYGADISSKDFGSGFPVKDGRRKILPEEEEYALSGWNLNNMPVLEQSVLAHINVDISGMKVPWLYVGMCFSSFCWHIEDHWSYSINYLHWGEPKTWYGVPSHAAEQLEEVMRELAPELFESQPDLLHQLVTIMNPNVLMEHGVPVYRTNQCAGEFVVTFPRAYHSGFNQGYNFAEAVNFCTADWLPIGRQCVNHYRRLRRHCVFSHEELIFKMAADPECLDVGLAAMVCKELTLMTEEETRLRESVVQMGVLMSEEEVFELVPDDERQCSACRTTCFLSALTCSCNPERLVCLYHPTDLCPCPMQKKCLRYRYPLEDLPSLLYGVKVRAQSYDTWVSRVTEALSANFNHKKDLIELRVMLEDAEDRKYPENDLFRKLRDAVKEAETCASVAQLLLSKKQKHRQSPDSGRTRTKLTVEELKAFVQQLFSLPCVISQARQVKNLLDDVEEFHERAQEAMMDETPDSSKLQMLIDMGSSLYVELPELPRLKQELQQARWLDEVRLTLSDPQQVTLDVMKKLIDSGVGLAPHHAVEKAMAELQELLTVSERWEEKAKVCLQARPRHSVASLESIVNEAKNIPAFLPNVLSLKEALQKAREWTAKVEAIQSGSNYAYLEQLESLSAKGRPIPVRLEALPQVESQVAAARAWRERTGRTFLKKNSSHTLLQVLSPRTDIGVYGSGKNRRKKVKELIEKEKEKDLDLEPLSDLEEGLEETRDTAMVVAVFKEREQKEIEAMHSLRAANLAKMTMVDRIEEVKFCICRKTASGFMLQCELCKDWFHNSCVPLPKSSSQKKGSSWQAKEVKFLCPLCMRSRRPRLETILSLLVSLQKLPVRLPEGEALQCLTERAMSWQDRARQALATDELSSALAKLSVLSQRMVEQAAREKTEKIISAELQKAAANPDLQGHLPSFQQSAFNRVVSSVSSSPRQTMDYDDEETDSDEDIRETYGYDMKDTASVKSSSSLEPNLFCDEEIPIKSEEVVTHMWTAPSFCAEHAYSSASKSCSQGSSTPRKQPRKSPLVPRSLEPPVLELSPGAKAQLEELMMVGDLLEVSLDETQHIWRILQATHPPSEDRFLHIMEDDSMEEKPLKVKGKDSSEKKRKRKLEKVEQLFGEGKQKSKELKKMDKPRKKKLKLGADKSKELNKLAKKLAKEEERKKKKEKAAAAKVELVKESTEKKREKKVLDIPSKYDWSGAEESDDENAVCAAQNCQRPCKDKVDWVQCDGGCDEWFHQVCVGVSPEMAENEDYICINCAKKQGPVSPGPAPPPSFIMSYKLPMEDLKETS
T2 sequence (Q9UGL1 whole entry): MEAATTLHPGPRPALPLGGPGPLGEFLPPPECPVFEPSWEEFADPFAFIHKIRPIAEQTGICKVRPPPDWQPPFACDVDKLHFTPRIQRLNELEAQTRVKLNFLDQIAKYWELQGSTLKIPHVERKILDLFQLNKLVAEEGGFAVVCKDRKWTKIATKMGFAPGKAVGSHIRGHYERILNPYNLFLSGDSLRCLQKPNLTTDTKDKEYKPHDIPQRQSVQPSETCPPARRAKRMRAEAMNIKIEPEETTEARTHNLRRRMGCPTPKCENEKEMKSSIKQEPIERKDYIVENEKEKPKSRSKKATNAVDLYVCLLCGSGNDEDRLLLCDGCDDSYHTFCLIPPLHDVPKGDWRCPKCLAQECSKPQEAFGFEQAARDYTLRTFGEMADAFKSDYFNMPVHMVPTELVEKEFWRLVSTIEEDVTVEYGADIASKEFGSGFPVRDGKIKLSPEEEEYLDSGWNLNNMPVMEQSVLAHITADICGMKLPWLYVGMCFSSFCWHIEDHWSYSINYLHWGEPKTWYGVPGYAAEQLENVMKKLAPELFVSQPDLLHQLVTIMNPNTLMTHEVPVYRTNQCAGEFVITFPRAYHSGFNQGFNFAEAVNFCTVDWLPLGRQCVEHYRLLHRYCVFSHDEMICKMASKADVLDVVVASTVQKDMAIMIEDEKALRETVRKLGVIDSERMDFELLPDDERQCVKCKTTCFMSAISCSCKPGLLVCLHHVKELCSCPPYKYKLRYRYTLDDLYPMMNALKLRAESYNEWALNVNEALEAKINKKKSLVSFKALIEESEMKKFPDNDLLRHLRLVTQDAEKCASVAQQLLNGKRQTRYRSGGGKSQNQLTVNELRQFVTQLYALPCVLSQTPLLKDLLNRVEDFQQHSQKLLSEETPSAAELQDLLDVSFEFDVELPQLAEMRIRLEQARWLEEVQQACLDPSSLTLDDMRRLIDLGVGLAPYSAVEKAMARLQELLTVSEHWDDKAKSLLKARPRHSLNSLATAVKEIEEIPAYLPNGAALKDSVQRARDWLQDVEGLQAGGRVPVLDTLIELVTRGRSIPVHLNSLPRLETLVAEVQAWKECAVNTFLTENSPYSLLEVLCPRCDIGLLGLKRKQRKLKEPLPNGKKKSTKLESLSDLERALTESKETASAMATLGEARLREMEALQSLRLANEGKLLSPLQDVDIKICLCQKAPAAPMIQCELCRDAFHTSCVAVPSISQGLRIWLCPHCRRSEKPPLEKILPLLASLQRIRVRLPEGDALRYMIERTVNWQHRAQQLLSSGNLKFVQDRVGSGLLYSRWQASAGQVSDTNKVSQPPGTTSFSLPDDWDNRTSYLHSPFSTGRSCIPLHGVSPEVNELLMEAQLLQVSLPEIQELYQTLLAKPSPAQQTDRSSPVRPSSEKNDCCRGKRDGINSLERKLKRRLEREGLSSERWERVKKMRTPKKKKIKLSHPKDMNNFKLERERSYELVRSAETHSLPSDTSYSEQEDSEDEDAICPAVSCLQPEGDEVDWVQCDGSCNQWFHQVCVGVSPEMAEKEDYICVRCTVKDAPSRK
Chain of Lysine-specific demethylase 6A (O15550 whole entry): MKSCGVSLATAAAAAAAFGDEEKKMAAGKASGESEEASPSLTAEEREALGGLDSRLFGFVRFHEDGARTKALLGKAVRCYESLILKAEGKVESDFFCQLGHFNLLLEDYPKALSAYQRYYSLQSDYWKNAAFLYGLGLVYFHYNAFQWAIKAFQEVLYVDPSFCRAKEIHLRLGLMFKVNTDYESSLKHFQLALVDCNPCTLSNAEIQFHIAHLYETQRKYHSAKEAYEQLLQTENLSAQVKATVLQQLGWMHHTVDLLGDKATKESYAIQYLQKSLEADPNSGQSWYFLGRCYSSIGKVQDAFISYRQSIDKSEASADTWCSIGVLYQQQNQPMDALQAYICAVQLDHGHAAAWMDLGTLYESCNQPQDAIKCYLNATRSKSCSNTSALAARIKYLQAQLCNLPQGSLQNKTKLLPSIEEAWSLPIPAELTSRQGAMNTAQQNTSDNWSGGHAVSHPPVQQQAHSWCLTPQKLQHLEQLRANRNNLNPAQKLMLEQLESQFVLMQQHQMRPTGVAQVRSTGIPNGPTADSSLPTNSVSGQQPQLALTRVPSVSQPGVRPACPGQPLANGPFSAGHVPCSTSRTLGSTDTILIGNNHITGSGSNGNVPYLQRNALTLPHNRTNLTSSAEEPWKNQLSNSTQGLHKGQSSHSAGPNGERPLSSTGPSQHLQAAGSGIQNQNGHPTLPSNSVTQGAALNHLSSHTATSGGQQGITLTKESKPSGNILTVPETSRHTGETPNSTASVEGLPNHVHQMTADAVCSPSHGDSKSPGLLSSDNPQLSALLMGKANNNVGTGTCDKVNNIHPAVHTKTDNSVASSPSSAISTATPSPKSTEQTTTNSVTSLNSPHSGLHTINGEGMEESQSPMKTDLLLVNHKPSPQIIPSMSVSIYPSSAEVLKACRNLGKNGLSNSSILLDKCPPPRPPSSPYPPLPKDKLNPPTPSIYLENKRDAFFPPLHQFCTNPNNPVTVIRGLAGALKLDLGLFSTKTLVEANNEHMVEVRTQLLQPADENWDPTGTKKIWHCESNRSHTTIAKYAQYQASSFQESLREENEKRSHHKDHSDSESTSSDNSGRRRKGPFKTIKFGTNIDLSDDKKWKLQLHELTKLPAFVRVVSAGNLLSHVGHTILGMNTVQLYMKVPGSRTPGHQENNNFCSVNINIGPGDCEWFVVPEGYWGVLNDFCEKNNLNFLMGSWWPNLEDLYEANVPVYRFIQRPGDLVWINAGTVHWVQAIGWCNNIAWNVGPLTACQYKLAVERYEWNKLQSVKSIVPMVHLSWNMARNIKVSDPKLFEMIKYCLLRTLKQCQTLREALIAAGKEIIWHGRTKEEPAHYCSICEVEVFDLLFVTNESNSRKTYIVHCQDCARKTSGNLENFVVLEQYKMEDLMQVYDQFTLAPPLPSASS

For the compound `O=C(O)c1ccncc1NCC12CC3CC(CC(C3)C1)C2`, the 50% inhibitory concentration (IC50) in the test “cells” is more than 10000 nM; in [1], less than 100 nM; in [2] it was 100 nM; in test [3], 100 nM.

With `O=C(O)c1ccnc(CNCc2nccn2C/C=C/c2ccccc2)c1`, the concentration for half-maximal inhibition (IC50) was more than 2500 nM in [4], less than 250 nM in [5] and more than 2500 nM in test [6].

Turning to `O=C(O)c1ccnc2cc(OCc3ccc(Cl)c(OCC4CC4)c3)[nH]c12`, the half-maximal inhibitory concentration (IC50) in test [7] was 1000 nM; in test [1], less than 100 nM; in test [2], less than 100 nM; in test [3], 100 nM.

Regarding `COc1ccc(-c2c(-c3cc(C(=O)O)ccn3)ncn2C)cc1`, the IC50 in [8] is 100 nM; in [1], 1000 nM; in test [2] it was 100 nM; in test [9] it was 1000 nM; in test [10], 1000 nM; in [3] it was 100 nM.

Take `COC(=O)c1ccnc(-n2nccc2OCc2ccc(Cl)cc2)c1`: the IC50 in test [9] and in test [10] was 100 nM each time.

On to `Cn1nc(Nc2cnccc2C(=O)O)c2cccnc21`, for which the IC50 in test [1] was 100 nM; in test [2] it was less than 100 nM; in test [9] it was 100 nM; in test [10], 100 nM; in [3], less than 100 nM.

Turning to `O=C(O)c1ccnc(-n2ncc(CCO)c2OCc2ccc(F)cc2)c1`, the values for the IC50 in test [1], in test [2] and in test [3] were 1000 nM, less than 100 nM and less than 100 nM, respectively.

Consider `Cc1cc(Cl)ccc1COc1ccnn1-c1cc(C(=O)O)ccn1`, for which the IC50 in test [8] was 100 nM; in test [1], 100 nM; in test [2], less than 100 nM; in test [9], less than 100 nM; in test [10] it was less than 100 nM; in test [3], less than 100 nM.

In the case of `Cn1cnc(-c2cc(-c3nn[nH]n3)ccn2)c1`, the IC50 in test [8] was less than 100 nM; in test [7], more than 10000 nM; in test [1], more than 10000 nM; in [2], 100 nM; in test [9] it was more than 10000 nM; in [10], more than 10000 nM. Further, the IC50 in [3] is 100 nM.

On to `Cn1cnc(-c2cc(C(=O)O)ccn2)c1`, for which the IC50 was less than 100 nM in [8]; less than 100 nM in [7]; less than 100 nM in [1]; less than 100 nM in [2]; more than 10000 nM in [9]; more than 10000 nM in [10]. Moreover, the IC50 in [3] is less than 100 nM.

The compound `COC(=O)c1ccnc2cc(OCc3ccc(Cl)c(OC)c3)[nH]c12` returned a concentration for half-maximal inhibition (IC50) in the test “cells” of less than 100 nM.

Take `O=C(O)c1ccnc2cc(OCc3ccc(Cl)c(OC(F)(F)F)c3)[nH]c12`: the concentration for half-maximal inhibition (IC50) was 100 nM in [7], less than 100 nM in test [1], less than 100 nM in test [2] and 100 nM in test [3].

Consider `CC(C)Cn1nc(Nc2cnccc2C(=O)NC#N)c2cc(F)ccc21`, for which the concentration for half-maximal inhibition (IC50) was 1000 nM in test [1], less than 100 nM in test [2] and less than 100 nM in test [3].

For `Cn1cnc(-c2cc(C(=O)O)ccn2)c1-c1ccc(OCC2CC2)cc1`, the half-inhibitory concentration (IC50) in test [8] is 100 nM; in test [1], 100 nM; in test [2] it was less than 100 nM; in test [9], 1000 nM; in test [10] it was 1000 nM; in test [3], less than 100 nM.

On to `O=C(O)c1ccncc1Nc1nn(C2CCCC2)c2ccc(F)cc12`, for which the IC50 in test [1] was 100 nM; in test [2], less than 100 nM; in [9] it was 100 nM; in [10], 100 nM; in test [3] it was less than 100 nM.

In the case of `COC(=O)c1ccnc2cc(OCc3ccc(Cl)c(OC(F)(F)F)c3)[nH]c12`, the IC50 in the test “cells” was less than 100 nM.

Consider `O=C(O)c1ccnc(-n2nccc2OCc2ccc(Cl)cc2)c1`, for which the IC50 in [1] is less than 100 nM; in test [2], less than 100 nM; in [9], 100 nM; in test [10] it was 100 nM; in test [3], less than 100 nM.

Turning to `O=C(O)c1cnnc(CNCC(=O)N2CCCCC2)c1`, the figures for the 50% inhibitory concentration (IC50) in test [4], in test [5] and in test [6] were less than 250 nM, less than 250 nM and more than 2500 nM, respectively.

The compound `COC(=O)c1ccnc2cc(OCc3ccc(Cl)c(OCC4CC4)c3)[nH]c12` showed a half-maximal inhibitory concentration (IC50) in the test “cells” of less than 100 nM.

As for `CNC(=O)c1ccnc2cc(OCc3ccc(Cl)c(OC(F)(F)F)c3)[nH]c12`, in “cells”, the IC50 is less than 100 nM.

Take `COc1cc(COc2cc3nccc(C(=O)O)c3[nH]2)ccc1Cl`: the IC50 in test [7] is 100 nM; in test [1], less than 100 nM; in test [2], 1000 nM; in [3], 1000 nM.

Broadly, the IC50 is the point on the concentration scale where inhibition reaches its midpoint. High values mean weaker potency, low ones greater potency.

Values taken from ChEMBL document CHEMBL3784917, “Recent Progress in Histone Demethylase Inhibitors” (J Med Chem, 2016).
